# pIC50: −log10 of the molar value.
# Columns and labels:
# [1] = biological target: T1, PI3K-α (PIK3CA) wild-type (WT), p110α/p85α complex (Homo sapiens, UniProt P42336); test: PI3K-alpha kinase (PIK3CA) biochemical activity, ADP-Glo, wild-type
# T1 construct: Recombinant, catalytically active human full length PIK3KA Wild-type and H1047R mutant; 6×His (N); purchased EMD Millipore Sigma 14-602M
# Method in brief: (§1)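 ADP formation measured by ADP-Glo luminescence after reaction at 27 °C to about 10% ATP turnover, using 20 uM ATP, 50 uM PIP2diC8 or soy PI lipid, HEPES pH 7.4 with MgCl2. Enzyme (1-5 nM WT or H1047R p110α/p85α) and compound preincubated 1 h first; 10-point 1:3 curves fitted four-parameter for IC50.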
# [2] = biological target: T2, PI3K-α (PIK3CA) H1047R mutant, p110α/p85α complex (Homo sapiens, UniProt P42336, H1047R); test: PI3K-alpha kinase (PIK3CA) biochemical activity, ADP-Glo, H1047R mutant
# T2 construct: Recombinant, catalytically active human full length PIK3KA Wild-type and H1047R mutant; 6×His (N); purchased EMD Millipore Sigma 14-792M
# Method in brief: as §1
# [3] = biological target: PI3K-α (PIK3CA) in MDA-MB-453 cells (Homo sapiens, UniProt P42336); test: PI3K-alpha kinase (PIK3CA) in vitro cell based assay, MDA-MB-453 cells, SureFire Ultra AlphaLisa; conditions: read-out: PI3K-α (PIK3CA) in vitro cell based assay IC50
# Protocol: PI3K-Alpha Kinase (PIK3CA) Activity In Vitro Cell Based Assay and Determining IC50 Values for Inhibitors
# The MDA-MB-453 (ATCC-HTB-131) cell line was obtained from the American Type Culture Collection (Manassas, VA). Cells were maintained in Dulbecco's Modified Eagle Media (DMEM, Gibco 11965-092) supplemented with 10% Fetal Bovine Serum, heat inactivated (FBS HI, Gibco 10082-147), 1× non-essential amino acids (NEAA, Gibco 11140-050), and 1 mM sodium pyruvate (Gibco 11360-070). Cultures were maintained in a humidified incubator at 37° C. under 5% CO2/95% air.
# For compound testing in 0% FBS, MDA-MB-453 cells were seeded at a density of 1.5×10^4 cells per well in white 384-well plates in 20 μl of Minimum Essential Media (MEM) assay media with 1×NEAA, 1 mM sodium pyruvate, and 1 μg/mL human insulin (Sigma I9278). Compounds dissolved in 10 mM stock solutions in DMSO were serially diluted 1:3 in DMSO to generate a 10-point dilution series and plated using an acoustic liquid handler system (Echo 550 Series Liquid Handler, Labcyte). A 5× intermediate compound dilution plate in MEM with 1×NEAA and 1 mM sodium pyruvate (150 μM starting compound concentration in 1.5% DMSO) was then prepared. Five μl of the intermediate serially diluted compounds were added to the cell plate to final concentrations ranging from […] in 0.3% DMSO. 0.3% DMSO alone was used to establish the maximum (MAX) signal and GDC-0032 at a final concentration of 1 μM was used as a reference compound for the minimum (MIN) signal. After 3 hours treatment, the medium was removed, and the cells lysed in 10 μL of 1× SureFire Lysis buffer with shaking for 10 minutes at room temperature. The Acceptor Mix (Reaction Buffer 1+Reaction Buffer 2+Activation Buffer+SureFire Ultra Acceptor Beads) was prepared by diluting Activation buffer 25-fold in combined Reaction Buffer 1 and Reaction Buffer 2. The Acceptor beads were diluted 50-fold in the combined Reaction Buffers. Five μL of Acceptor Mix was added to each well, the plate was sealed and covered with foil and incubated for 1 hour at room temperature. The Donor Mix (dilution buffer+SureFire Ultra Donor Beads) was prepared by diluting Donor Beads 50-fold in dilution buffer. Five μL of the Donor Mix was added to each well and the plate sealed and covered with foil and incubated for 1 hour at room temperature in the dark. The plates were read on a Neo2 plate reader instrument from Biotek using standard AlphaLisa settings. Compounds were tested in duplicate and the average % inhibition at each compound concentration was used to generate a single dose response curve. The data were processed using the Genedata-Screener tool. Relative IC50 values were determined using luminescence units by calculating percent inhibition with respect to the in-plate “MIN” (GDC-0032 reference control) and “MAX” (DMSO) controls. The data was analyzed using a 4-parameter nonlinear logistic equation (four-parameter logistic concentration-response curve): Y=bottom+[(top−bottom)/1+(X/IC50)slope] where Y=% inhibition, X=concentration of inhibitor, bottom=minimum value of y attained by curve-fit, top=maximum value of y attained by curve-fit and slope=steepness of curve at the IC50. % Inhibition=[(signal at X−median Min)/(median Max−median Min)]×100 IC50: concentration of compound that reduces a given response (ligand binding, enzyme response) by 50%. Relative IC50: concentration giving half the compound's maximum response.
# [4] = PIP2diC8 lipid substrate (footnote 1)
# PI3K-α (PIK3CA) in MDA-MB-453 cells, sequence (P27986 2-724): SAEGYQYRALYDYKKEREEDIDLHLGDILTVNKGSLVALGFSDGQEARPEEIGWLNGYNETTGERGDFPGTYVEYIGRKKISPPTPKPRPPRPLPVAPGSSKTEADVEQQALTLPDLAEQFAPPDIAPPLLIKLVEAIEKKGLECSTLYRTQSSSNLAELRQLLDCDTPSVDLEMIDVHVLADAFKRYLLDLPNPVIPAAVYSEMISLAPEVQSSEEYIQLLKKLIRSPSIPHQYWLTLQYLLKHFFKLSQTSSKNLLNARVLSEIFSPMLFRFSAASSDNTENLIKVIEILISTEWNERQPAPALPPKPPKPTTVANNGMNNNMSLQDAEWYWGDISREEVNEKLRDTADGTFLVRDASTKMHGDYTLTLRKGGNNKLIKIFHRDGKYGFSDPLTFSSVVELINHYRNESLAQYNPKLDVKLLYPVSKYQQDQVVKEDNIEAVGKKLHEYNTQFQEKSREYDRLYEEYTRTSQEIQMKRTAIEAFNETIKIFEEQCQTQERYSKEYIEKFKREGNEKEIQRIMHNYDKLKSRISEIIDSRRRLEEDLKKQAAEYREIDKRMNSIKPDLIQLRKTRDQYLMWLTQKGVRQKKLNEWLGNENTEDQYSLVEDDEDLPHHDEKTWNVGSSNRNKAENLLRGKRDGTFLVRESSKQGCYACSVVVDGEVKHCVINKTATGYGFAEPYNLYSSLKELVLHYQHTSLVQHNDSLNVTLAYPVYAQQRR
# PI3K-α (PIK3CA) in MDA-MB-453 cells, sequence (P42336 whole entry): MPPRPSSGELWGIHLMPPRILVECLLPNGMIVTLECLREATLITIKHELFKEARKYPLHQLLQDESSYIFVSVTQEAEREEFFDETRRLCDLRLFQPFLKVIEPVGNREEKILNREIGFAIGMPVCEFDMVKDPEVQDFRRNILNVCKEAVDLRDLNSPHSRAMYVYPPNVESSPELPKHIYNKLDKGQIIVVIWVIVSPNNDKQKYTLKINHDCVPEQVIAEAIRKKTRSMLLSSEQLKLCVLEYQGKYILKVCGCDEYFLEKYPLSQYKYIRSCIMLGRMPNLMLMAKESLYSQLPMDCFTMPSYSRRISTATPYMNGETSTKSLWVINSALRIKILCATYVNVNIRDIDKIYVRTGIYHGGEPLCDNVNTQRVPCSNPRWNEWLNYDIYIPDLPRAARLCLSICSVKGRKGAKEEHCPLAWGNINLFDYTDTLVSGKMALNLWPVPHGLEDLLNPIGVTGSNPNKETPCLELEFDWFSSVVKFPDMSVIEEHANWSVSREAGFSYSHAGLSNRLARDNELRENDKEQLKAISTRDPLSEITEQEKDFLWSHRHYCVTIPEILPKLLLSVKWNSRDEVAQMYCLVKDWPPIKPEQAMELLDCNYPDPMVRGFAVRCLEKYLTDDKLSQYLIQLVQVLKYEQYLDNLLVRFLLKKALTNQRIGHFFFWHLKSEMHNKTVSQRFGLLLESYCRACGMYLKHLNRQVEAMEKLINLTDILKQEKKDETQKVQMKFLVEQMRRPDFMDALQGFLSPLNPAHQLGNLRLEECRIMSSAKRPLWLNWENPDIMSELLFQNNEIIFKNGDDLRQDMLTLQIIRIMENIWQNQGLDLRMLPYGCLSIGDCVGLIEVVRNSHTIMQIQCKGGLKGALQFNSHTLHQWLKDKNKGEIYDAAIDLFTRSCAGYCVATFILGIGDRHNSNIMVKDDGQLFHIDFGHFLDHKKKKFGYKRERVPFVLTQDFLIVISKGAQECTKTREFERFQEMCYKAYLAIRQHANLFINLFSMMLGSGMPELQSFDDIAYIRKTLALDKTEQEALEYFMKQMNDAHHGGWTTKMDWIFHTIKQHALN
# T2 sequence (P42336 whole entry H1047R): as the sequence (P42336 whole entry) above, with H1047R counted along it
# T2 sequence (P27986 whole entry partner): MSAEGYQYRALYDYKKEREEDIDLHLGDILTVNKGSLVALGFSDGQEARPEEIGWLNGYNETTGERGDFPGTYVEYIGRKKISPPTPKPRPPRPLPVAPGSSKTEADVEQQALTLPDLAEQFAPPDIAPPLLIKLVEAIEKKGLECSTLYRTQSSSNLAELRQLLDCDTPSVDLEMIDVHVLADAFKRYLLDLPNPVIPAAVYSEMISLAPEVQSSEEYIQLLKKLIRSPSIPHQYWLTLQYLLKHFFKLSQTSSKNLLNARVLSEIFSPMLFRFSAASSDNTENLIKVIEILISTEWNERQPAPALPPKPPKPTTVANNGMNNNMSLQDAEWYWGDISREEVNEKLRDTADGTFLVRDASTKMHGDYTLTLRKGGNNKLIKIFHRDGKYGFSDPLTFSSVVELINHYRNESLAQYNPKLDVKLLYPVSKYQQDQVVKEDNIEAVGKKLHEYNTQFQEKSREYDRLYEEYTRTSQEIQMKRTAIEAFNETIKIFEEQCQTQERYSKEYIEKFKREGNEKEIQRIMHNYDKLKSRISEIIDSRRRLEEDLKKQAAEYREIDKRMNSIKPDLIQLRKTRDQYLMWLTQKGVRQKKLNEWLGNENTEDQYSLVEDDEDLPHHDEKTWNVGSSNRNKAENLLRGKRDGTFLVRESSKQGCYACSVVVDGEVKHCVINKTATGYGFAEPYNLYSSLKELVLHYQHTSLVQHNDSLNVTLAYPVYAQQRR
SMILES,pIC50 ([1]; Soy PI lipid substrate),pIC50 ([2]; Soy PI lipid substrate),pIC50 [3],"pIC50 [1, 4]","pIC50 [2, 4]"
"Cc1cc(C(C)Nc2ccccc2C(=O)O)c2oc(-c3cc4ccncc4o3)c(C)c(=O)c2c1 (single isomer, unassigned) [Example 151, 2-[1-(2-Furo[2,3-c]pyridin-2-yl-3,6-dimethyl-4-oxo-chromen-8-yl)ethylamino]benzoic acid]",6.00 to 6.30,> 6.30,> 7.30,,
"Cc1cc(C(C)Nc2ccccc2C(=O)O)c2oc(-c3cc4ccccc4[nH]3)cc(=O)c2c1 (single isomer, unassigned) [Example 68, 2-[1-[2-(1H-Indol-2-yl)-6-methyl-4-oxo-chromen-8-yl]ethylamino]benzoic acid]",6.00 to 6.30,> 6.30,> 7.30,,
"Cc1cc(C(C)Nc2ccccc2C(=O)O)c2oc(-c3cnn4cccnc34)cc(=O)c2c1 (single isomer, unassigned) [Example 33, 2-[1-(6-Methyl-4-oxo-2-pyrazolo[1,5-a]pyrimidin-3-yl-chromen-8-yl)ethylamino]benzoic acid]",< 5.00,< 5.00,< 6.30,,
"Cc1cc(C(C)Nc2ccccc2C(=O)O)c2oc(-c3ccc4[nH]ncc4c3)c(C)c(=O)c2c1 (single isomer, unassigned) [Example 132, 2-[1-[2-(1H-Indazol-5-yl)-3,6-dimethyl-4-oxo-chromen-8-yl]ethylamino]benzoic acid]",6.00 to 6.30,> 6.30,> 7.30,,
"CC(Nc1ccccc1C(=O)O)c1cc(F)cc2c(=O)cc(-c3cc4ccccc4[nH]3)oc12 (single isomer, unassigned) [Example 128, 2-[1-[6-Fluoro-2-(1H-indol-2-yl)-4-oxo-chromen-8-yl]ethylamino]benzoic acid]",6.00 to 6.30,> 6.30,> 7.30,,
"Cc1cc(C(C)Nc2ccccc2C(=O)O)c2oc(-c3ccn4nncc4c3)cc(=O)c2c1 (single isomer, unassigned) [Example 58, 2-[1-[6-Methyl-4-oxo-2-(triazolo[1,5-a]pyridin-5-yl)chromen-8-yl]ethylamino]benzoic acid]",5.30 to 6.00,> 6.30,6.30 to 7.00,,
"Cc1cc(C(C)Nc2ccccc2C(=O)O)c2oc(-c3ccc4c(C)nn(C)c4c3)cc(=O)c2c1 (single isomer, unassigned) [Example 27, 2-[1-[2-(1,3-Dimethylindazol-6-yl)-6-methyl-4-oxo-chromen-8-yl]ethylamino]benzoic acid]",6.00 to 6.30,> 6.30,> 7.30,,
"Cc1cc(C(C)Nc2ccccc2C(=O)O)c2oc(-c3cnc4cc[nH]c4c3)cc(=O)c2c1 (single isomer, unassigned) [Example 71, 2-[1-[6-Methyl-4-oxo-2-(1H-pyrrolo[3,2-b]pyridin-6-yl)chromen-8-yl]ethylamino]benzoic acid]",5.30 to 6.00,> 6.30,6.30 to 7.00,,
"Cc1cc(C(C)Nc2ccccc2C(=O)O)c2oc(-c3cc4cnccc4o3)c(C)c(=O)c2c1 (single isomer, unassigned) [Example 153, 2-[1-(2-Furo[3,2-c]pyridin-2-yl-3,6-dimethyl-4-oxo-chromen-8-yl)ethylamino]benzoic acid]",> 6.30,> 6.30,> 7.30,,
"Cc1cc(C(C)Nc2ccccc2C(=O)O)c2oc(-c3ccc4cnn(C)c4n3)cc(=O)c2c1 (single isomer, unassigned) [Example 82, 2-[1-[6-Methyl-2-(1-methylpyrazolo[3,4-b]pyridin-6-yl)-4-oxo-chromen-8-yl]ethylamino]benzoic acid]",6.00 to 6.30,> 6.30,6.30 to 7.00,,
"Cc1cc(C(C)Nc2ccccc2C(=O)O)c2oc(-c3cnc4nn(C)cc4c3)cc(=O)c2c1 (stereo not drawn) [Example 9, 2-[1-[6-Methyl-2-(2-methylpyrazolo[3,4-b]pyridin-5-yl)-4-oxo-chromen-8-yl]ethylamino]benzoic acid]",,,< 6.30,6.00 to 6.30,> 6.30

# The next lines start with the values.
pIC50 ([1]; Soy PI lipid substrate),pIC50 ([2]; Soy PI lipid substrate),pIC50 [3],"pIC50 [1, 4]","pIC50 [2, 4]",SMILES
6.00 to 6.30,> 6.30,> 7.30,,,"Cc1cc([C@@H](C)Nc2ccccc2C(=O)O)c2oc(-c3ccc4nc(C)sc4c3)c(C)c(=O)c2c1 [Example 262, 2-[[(1R)-1-[3,6-Dimethyl-2-(2-methyl-1,3-benzothiazol-6-yl)-4-oxo-chromen-8-yl]ethyl]amino]benzoic acid]"
6.00 to 6.30,> 6.30,6.30 to 7.00,,,"Cc1cc(-c2cc(=O)c3cc(C(F)(F)F)cc(C(C)Nc4ccc(Cl)nc4C(=O)O)c3o2)cc2cn(C)nc12 (single isomer, unassigned) [Example 191, 6-Chloro-3-[1-[2-(2,7-dimethylindazol-5-yl)-4-oxo-6-(trifluoromethyl)chromen-8-yl]ethylamino]pyridine-2-carboxylic acid]"
6.00 to 6.30,> 6.30,> 7.30,,,"CC(Nc1ccc(Cl)nc1C(=O)O)c1cc(C(F)(F)F)cc2c(=O)cc(-c3cc(Cl)c4nn(C)cc4c3)oc12 (single isomer, unassigned) [Example 193, 6-Chloro-3-[1-[2-(7-chloro-2-methyl-indazol-5-yl)-4-oxo-6-(trifluoromethyl)chromen-8-yl]ethylamino]pyridine-2-carboxylic acid]"
6.00 to 6.30,> 6.30,7.00 to 7.30,,,"Cc1cc(C(C)Nc2ccc(Cl)nc2C(=O)O)c2oc(-c3ccc4nc(C)cn4c3)c(C)c(=O)c2c1 (single isomer, unassigned) [Example 178, 6-Chloro-3-[1-[3,6-dimethyl-2-(2-methylimidazo[1,2-a]pyridin-6-yl)-4-oxo-chromen-8-yl]ethylamino]pyridine-2-carboxylic acid]"
> 6.30,> 6.30,> 7.30,,,"Cc1cc(C(C)Nc2ccc(Cl)nc2C(=O)O)c2oc(-c3ccc4c(cnn4C)c3)cc(=O)c2c1 (single isomer, unassigned) [Example 218, 6-Chloro-3-[1-[6-methyl-2-(1-methylindazol-5-yl)-4-oxo-chromen-8-yl]ethylamino]pyridine-2-carboxylic acid]"
5.30 to 6.00,> 6.30,7.00 to 7.30,,,"Cc1cc([C@@H](C)Nc2ccc(C)nc2C(=O)O)c2oc(-c3ccc4nc(C)sc4n3)c(C)c(=O)c2c1 [Example 265, 3-[[(1R)-1-[3,6-Dimethyl-2-(2-methylthiazolo[5,4-b]pyridin-5-yl)-4-oxo-chromen-8-yl]ethyl]amino]-6-methyl-pyridine-2-carboxylic acid]"
> 6.30,> 6.30,7.00 to 7.30,,,"CC(Nc1ccc(Cl)nc1C(=O)O)c1cc(C(F)(F)F)cc2c(=O)cc(-c3ccc4c(cnn4C)c3)oc12 (single isomer, unassigned) [Example 168, 6-Chloro-3-[1-[2-(1-methylindazol-5-yl)-4-oxo-6-(trifluoromethyl)chromen-8-yl]ethylamino]pyridine-2-carboxylic acid]"
> 6.30,> 6.30,> 7.30,,,"Cc1cc([C@@H](C)Nc2ccc(F)cc2C(=O)O)c2oc(-c3ccc4cnn(C)c4c3)cc(=O)c2c1 [Example 238, 5-Fluoro-2-[[(1R)-1-[6-methyl-2-(1-methylindazol-6-yl)-4-oxo-chromen-8-yl]ethyl]amino]benzoic acid]"

# From patent US11878970B2, “Allosteric chromenone inhibitors of phosphoinositide 3-kinase (PI3K) for the treatment of disease” (Petra Pharma Corporation, priority 2021, dated 2024)
